Reference: US20220009909A1, “ADAMTS INHIBITORS, PREPARATION METHODS AND MEDICINAL USES THEREOF” (Eternity Bioscience Inc., priority 2020, published 2022)

Legend:
[1] = target: T1, ADAMTS-5 recombinant protein (Homo sapiens, UniProt Q9UNA0); assay: In vitro fluorescence (FRET-peptide) enzymatic assay of ADAMTS-5 activity; assay type: biochemical; conditions: FRET peptide substrate 8 μM, 10 nM enzyme, 37° C. 3 hours
T1 construct: purchased R&D Systems 2198-AD
T1 sequence (Q9UNA0 262-622 limits assumed): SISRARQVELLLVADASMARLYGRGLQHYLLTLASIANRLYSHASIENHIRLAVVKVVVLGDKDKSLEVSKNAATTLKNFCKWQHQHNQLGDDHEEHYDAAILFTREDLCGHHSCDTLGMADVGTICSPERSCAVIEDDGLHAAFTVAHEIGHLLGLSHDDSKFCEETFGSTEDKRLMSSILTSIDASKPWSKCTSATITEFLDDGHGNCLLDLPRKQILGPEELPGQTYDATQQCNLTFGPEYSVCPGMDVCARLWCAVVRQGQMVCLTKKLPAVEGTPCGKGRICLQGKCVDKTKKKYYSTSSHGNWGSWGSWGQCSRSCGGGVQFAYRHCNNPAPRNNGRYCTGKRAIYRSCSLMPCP
Experimental: (§1) A FRET (fluorescence resonance energy transfer) peptide was cleaved by recombinant ADAMTS-4 or ADAMTS-5 proteins into two separate fragments resulting in an increase of fluorescence signal which was quantified. The peptide was 5-FAM-TEGEARGSVILLK (5-TAMRA)K—NH2, customized from ANASPEC. ADAMTS-4 recombinant protein (4307-AD) and ADAMTS-5 recombinant protein (2198-AD) were purchased from R&D Systems.
(§2) An assay buffer containing 50 mM HEPES pH 7.5, 100 mM NaCl, 5 mM CaCl2, 0.1% CHAPS and 5% Glycerol was prepared. A volume of 2.5 μl of compound in the assay buffer was dispensed to a 384-well plate, and 2.5 μl of ADAMTS-4 or ADAMTS-5 protein (final concentration in the reaction was 10 nM) was added. The compounds and proteins were pre-incubated at room temperature for 15 minutes. Then, 5 μl of substrate was added to each well. The final substrate concentrations for ADAMTS-4 and ADAMTS-5 were 15 μM and 8 μM, respectively. The fluorescence signal in each well was determined, after incubation at 37° C. for 3 hours, on a TECAN plate reader (Excitation, 490 nm; Emission, 520 nm).
(§3) The data was inputted into GraphPad Prism, and the IC50 values were calculated using function “log (inhibitor) vs. response-Variable slope (four parameters)”, (See Table 1)

[2] = target: T2, ADAMTS-4 recombinant protein (Homo sapiens, UniProt O75173); assay: In vitro fluorescence (FRET-peptide) enzymatic assay of ADAMTS-4 activity; assay type: biochemical; conditions: FRET peptide substrate 15 μM, 10 nM enzyme, 37° C. 3 hours
T2 construct: purchased R&D Systems 4307-AD
T2 sequence (O75173 213-685 limits assumed): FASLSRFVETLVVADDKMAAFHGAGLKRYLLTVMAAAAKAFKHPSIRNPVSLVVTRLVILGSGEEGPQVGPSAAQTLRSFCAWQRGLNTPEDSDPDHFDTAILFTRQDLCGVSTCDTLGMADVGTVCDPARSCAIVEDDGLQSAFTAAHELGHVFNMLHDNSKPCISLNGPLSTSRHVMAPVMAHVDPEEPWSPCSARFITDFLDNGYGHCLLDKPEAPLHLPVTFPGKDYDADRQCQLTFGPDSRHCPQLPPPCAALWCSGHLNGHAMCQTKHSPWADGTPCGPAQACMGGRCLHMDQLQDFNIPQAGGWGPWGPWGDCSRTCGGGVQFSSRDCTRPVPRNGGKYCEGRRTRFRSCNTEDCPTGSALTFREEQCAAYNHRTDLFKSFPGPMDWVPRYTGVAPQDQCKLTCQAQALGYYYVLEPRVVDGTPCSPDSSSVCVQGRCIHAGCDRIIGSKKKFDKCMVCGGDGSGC
Experimental: as §1, §2, §3

[3] = target: T1, ADAMTS-5 recombinant protein; assay: Aggrecan-IGD enzymatic assay for ADAMTS-5 inhibitors (ARGSVIL-peptide ELISA); assay type: biochemical; conditions: aggrecan-IGD protein substrate, 37° C. 45 minutes
Experimental: In this assay, the enzymatic activity of recombinant ADAMTS-5 protein (2198-AD, R&D Systems) was assayed with a protein substrate, the aggrecan IGD protein. The aggrecan IGD protein is a polypeptide connecting human aggrecan globular domains 1 and 2 (T331-G458) expressed in E. coli with a C-terminal His-tag (BIOTEZ, 30411000). The enzymatic product ARGSVIL-peptide was detected using an ELISA kit from BioTEZ (30510111). An assay buffer containing 50 mM HEPES pH 7.5, 100 mM NaCl, 5 mM CaCl2, 0.1% CHAPS and 5% Glycerol was prepared. Recombinant ADAMTS-5 protein was diluted to 0.3 nM in the assay buffer. Ten μL of buffer and 10 μl of compound solution was transferred to each well of a 96-well plate and incubated at room temperature for 15 minutes. Substrate aggrecan-IGD was diluted to 100 nM with the assay buffer and 20 μl was added to each well. The plate was incubated at 37° C. for 45 minutes. After incubation, the newly generated epitope ARGSVIL-peptides were measured using the Aggrecanase Activity ELISA Assay Kit following the manufacturer's instructions. Then, 100 μl of stop solution was added and the absorbance of each well was read at 450 nm, using […] as reference on a TECAN plate reader.
A standard curve of the ELISA assay was generated in GraphPad Prism using Sigmoidal 4PL function and the corresponding peptide concentrations were calculated based on the standard curve. The IC50 values were calculated using function “log (inhibitor) vs. response-Variable slope (four parameters)”. (See Table 2).

[4] = tested on: mouse femoral head cartilage; assay: Mouse cartilage explant assay (IL-1α induced GAG release); assay type: cell-based; conditions: inhibition of GAG release, IL-1α 1 ng/mL, 72 hours; for inhibition at 2 µM: compound 2 μM, read-out: Inhibiton % at 2 μM; for inhibition at 20 µM: compound 20 μM
Experimental: In this assay, fresh mouse femoral head cartilage was treated with IL-1a protein (Sigma-Aldrich, 12778) in culture media, which induced the cartilage catabolism. Then, the GAGs attached to the cleaved aggrecan fragments (released in the media) and the GAGs attached to the intact aggrecan were measured by dimethylmethylene blue dye in the Glycosaminoglycans Assay Kit (Chondrex, 6022).
Femoral head cartilage samples were isolated from mice (25 days old, male, C57BL/6, from Charles River Lab) and put into 2.0 mL tubes filled-up with media (DMEM, 10% FBS, 4 mM Glutamine, penicillin-streptomycin, 20 mM HEPES). 200 μl of media without FBS was added to each well of a 48-well plate, and one piece of cartilage was transferred to a well in the plate. Then the media was aspirated, and compounds and IL-1α protein were added to the plate in a total volume of 400 μl of fresh media without FBS. The final concentration of IL-1α was 1 ng/mL. The plate was incubated at 37° C. for 72 hours in a humidified incubator with 5% CO2 supply.
The supernatant was transferred to a 1.5 mL tube and kept at −20° C. Each cartilage sample was transferred to another 1.5 mL tube containing 400 μl of freshly made papain solution. The papain solution contained 125 μg/mL papain (Sigma-Aldrich, P3125), 0.1 M sodium acetate (Sigma-Aldrich. S7899), pH 5.5 and 5 mM EDTA and 5 mM L-cysteine-HCl (Sigma-Aldrich, C7880). The cartilage samples were kept rocking in a 60° C. water bath for 24 hours.
The lysates were vortexed for 10 seconds and spinned at 10,000 rpm for 2 minutes. Both the supernatant and the lysate samples were diluted with PBS and mixed with 100 μL of dye from the Glycosaminoglycans Assay Kit. The optical density from each well was determined with a TECAN plate reader set to a wavelength of 525 nm,
The concentrations of GAGs in the supernatant and lysates were determined based on the standard curve with a dose range of chondroitin sulfate provided in the kit. The percentage of GAG release was calculated as the following: […]
The test compound effect was expressed as the percent of inhibition using the following formula: […]

O=C1NC(=O)C(CNC(=O)N2Cc3cc(Cl)c(Cl)cc3C2)(C2CC2)N1 (stereo not shown) [Example 1, 5,6-dichloro-N-((4-cyclopropyl-2,5-dioxoimidazolidin-4-yl)methyl)isoindoline-2-carboxamide]
IC50 [1]: 38 nM
IC50 [2]: 31 nM
IC50 [3]: 60 nM

O=C1NC(=O)[C@](CNC(=O)N2Cc3cc(Cl)c(Cl)cc3C2)(C2CC2)N1 [Example 1-2, (R)-5,6-dichloro-N-((4-cyclopropyl-2,5-dioxoimidazolidin-4-yl)methyl)isoindoline-2-carboxamide]
IC50 [1]: 23 nM
IC50 [2]: 16 nM
IC50 [3]: 26 nM
inhibition at 2 µM [4]: 47%
inhibition at 20 µM [4]: 87%

CC1c2cc(Cl)c(Cl)cc2CN1C(=O)NC[C@@]1(C2CC2)NC(=O)NC1=O (stereo partly drawn) [Example 2, 5,6-dichloro-N—(((R)-4-cyclopropyl-2,5-dioxoimidazolidin-4-yl)methyl)-1-methylisoindoline-2-carboxamide]
IC50 [1]: 36 nM
IC50 [2]: 42 nM
IC50 [3]: 44 nM

C[C@@H]1c2cc(Cl)c(Cl)cc2CN1C(=O)NC[C@@]1(C2CC2)NC(=O)NC1=O [Example 2-1, (R)-5,6-dichloro-N—(((R)-4-cyclopropyl-2,5-dioxoimidazolidin-4-yl)methyl)-1-methylisoindoline-2-carboxamide]
IC50 [1]: 9 nM
IC50 [2]: 34 nM
IC50 [3]: 17 nM
inhibition at 2 µM [4]: 14%
inhibition at 20 µM [4]: 86%

O=C1NC(=O)[C@](CNC(=O)N2Cc3cc(Cl)c(C(F)(F)F)cc3C2)(C2CC2)N1 [Example 3, (R)-5-chloro-N-((4-cyclopropyl-2,5-dioxoimidazolidin-4-yl)methyl)-6-(trifluoromethyl)isoindoline-2-carboxamide]
IC50 [1]: 40 nM
IC50 [2]: 39 nM
IC50 [3]: 40 nM

O=C1NC(=O)C(CNC(=O)N2Cc3ccc(C(F)(F)F)cc3C2)(C2CC2)N1 (stereo not shown) [Example 4, N-((4-cyclopropyl-2,5-dioxoimidazolidin-4-yl)methyl)-5-(trifluoromethyl)isoindoline-2-carboxamide]
IC50 [1]: 100 nM
IC50 [2]: 280 nM
IC50 [3]: 140 nM
inhibition at 2 µM [4]: 0%
inhibition at 20 µM [4]: 94%

CC1c2cc(C(F)(F)F)c(Cl)cc2CN1C(=O)NC[C@@]1(C2CC2)NC(=O)NC1=O (stereo partly drawn) [Example 8, 5-chloro-N—(((R)-4-cyclopropyl-2,5-dioxoimidazolidin-4-yl)methyl)-1-methyl-6-(trifluoromethyl)isoindoline-2-carboxamide]
IC50 [1]: 22 nM
IC50 [2]: 33 nM
IC50 [3]: 34 nM

C[C@@H]1c2cc(C(F)(F)F)c(Cl)cc2CN1C(=O)NC[C@@]1(C2CC2)NC(=O)NC1=O [Example 8-1, (R)-5-chloro-N—(((R)-4-cyclopropyl-2,5-dioxoimidazolidin-4-yl)methyl)-1-methyl-6-(trifluoromethyl)isoindoline-2-carboxamide]
IC50 [1]: 8 nM
IC50 [2]: 12 nM
IC50 [3]: 17 nM
inhibition at 2 µM [4]: 61%
inhibition at 20 µM [4]: 95%

[2H]C1([2H])c2cc(Cl)c(C(F)(F)F)cc2C(C)N1C(=O)NC[C@@]1(C2CC2)NC(=O)NC1=O (stereo partly drawn) [Example 9, 5-chloro-N—(((R)-4-cyclopropyl-2,5-dioxoimidazolidin-4-yl)methyl)-1-methyl-6-(trifluoromethyl)isoindoline-3,3-d2-2-carboxamide]
IC50 [1]: 30 nM
IC50 [2]: 53 nM
IC50 [3]: 34 nM

[2H]C1([2H])c2cc(Cl)c(Cl)cc2C(C)N1C(=O)NC[C@@]1(C2CC2)NC(=O)NC1=O (stereo partly drawn) [Example 11, 5,6-dichloro-N—(((R)-4-cyclopropyl-2,5-dioxoimidazolidin-4-yl)methyl)-1-methylisoindoline-3,3-d2-2-carboxamide]
IC50 [1]: 30 nM
IC50 [2]: 92 nM
